Experimental data as given in patent US12162839B1, “4,5-bis(4-bromophenyl)-2-(4-bromophenyl)-1-hexyl-1H-imidazole as an antimicrobial compound” (KING FAISAL UNIVERSITY, priority 2023, dated 2024).

Key:
Format in all cases: cell-based
Conditions in all cases: after 10, 20, 40 and 60 minutes at all dilutions 1:100, 1:200, 1:400, 1:800
[1] = test system: Staphylococcus aureus; assay: Antimicrobial testing by agar dilution, Staphylococcus aureus
Procedure: (§1) The antimicrobial properties of the 4,5-bis(4-bromophenyl)-2-(4-bromophenyl)-1-hexyl-1H-imidazole (5) were studied by the method of agar dilution. Test solutions of each compound were prepared in concentration of 1% using dimethylformamide as a solvent then they are diluted in physiological solution to obtain the final experimental dilutions 1:100, 1:200, 1:400, 1:800. The effect of these substances were compared with furacillin in a controllable study. The testing microbes used were gram positive bacteria Staphylococcus aureus, gram negative bacteria Escherichia coli, Pseudomonas aeruginosa and Candida albicans fungi were taken. The experiments used for this survey were meat-pentonlu agar (EPA) for cultivation of bacteria and Saburo environment for fungi. Each experiment used 1 ml of test solution on each plate 500 min. Add 2 drops of emulsified with microbes feel. All experimental samples were taken from the agar after 10, 20, 40, 60 minutes in the environment on the basis of Patrk planted. Bacteria were cultivated at a temperature of 37° C. for 1 day and the mushroom was kept in a thermostat for […] at a temperature of 28° C. in the. Then results were checked.

[2] = test system: Escherichia coli; assay: Antimicrobial testing by agar dilution, Escherichia coli
Procedure: as §1

[3] = test system: Pseudomonas aeruginosa; assay: Antimicrobial testing by agar dilution, Pseudomonas aeruginosa
Procedure: as §1

[4] = test system: Candida albicans; assay: Antimicrobial testing by agar dilution, Candida albicans
Procedure: as §1

Measured: inhibition activity (in words)

CCCCCCn1c(-c2ccc(Br)cc2)nc(-c2ccc(Br)cc2)c1-c1ccc(Br)cc1 [4,5-bis(4-bromophenyl)-2-(4-bromophenyl)-1-hexyl-1H-imidazole]
highest inhibition activity: [1] | [2] | [3] | [4]
